Results on three molecules are retold here after article PMC10803328 (Scientific Reports, 2024).

Structures are written as SMILES. Entries after “also recorded” stand apart in the source; their conditions may differ. Like-named read-outs stand apart in the source and are kept apart here.

In data set [1] the test system is PSAM^4-GlyR. Set-up: method as in PMID 30872534. Particulars: PSAM^4-GlyR transduced mouse; cited from earlier work.
Data set [2] concerns PSAM^4-GlyR. On the set-up: method as in PMID 30872534. Particulars: area CA1 of mouse hippocampal neurons, acting on PSAM^4-GlyR; cited from earlier work.
In data set [3] the test system is α7-nAChR. Set-up: method as in PMID 30872534, PMID 24556591. Particulars: cited from earlier work; for Ki: in vitro binding assay, literature.
Data set [4] has as its system P-gp. As to conditions: cited from earlier work.
Data set [5] in a line: Measurement of apparent pKa by radiotracer partition. Type of data set: physicochemical. Particulars: cyclohexane / sodium phosphate buffer partition; cyclohexane / phosphate buffers pH 3.0-10.5, n = 3. The procedure:
The method was similar to that followed previously for other radiotracers. Sodium phosphate buffers (0.15 M), with pH values of 3.0, 3.5, 4.0, 4.5, 5.0, 5.5, 6.0, 6.5, 7.0, 7.4, 8.0, 8.5, 9.0, 9.5, 10.0, and 10.5, were prepared from 0.15 M NaH2PO4 and 0.1 M Na2HPO4 and distributed (1 mL per tube) as the aqueous phase. [^11C]uPSEM, formulated in ethanol (20 µL, 2.4 ± 0.3 MBq, n = 48), was added to each tube. Triple sets of such tubes were prepared simultaneously. Cyclohexane (1.0 mL) was added to each of the tubes containing the buffer and the [^11C]uPSEM and then vigorously vortexed for 1 min. The tubes were then centrifuged for one minute. The two phases in each tube were separated, sampled (50 µL aqueous, 200 µL organic) and counted in a γ-counter. Distribution coefficients at each pH were calculated by dividing the counts detected in the organic phase by the total activity present in both phases. These distribution coefficients were plotted versus pH and nonlinear regression analysis applied with GraphPad Prism version 4.03 for windows (GraphPad Software; San Diego, CA) using “One site competition” curve-fitting. […] The radiochemical purity of the [^11C]uPSEM preparation was 98.8% as determined by radio-HPLC on an X-Terra […] column (10 µm, 7.8 × 300 mm; Waters Corp.) and a mobile phase of MeOH:H2O:Et3N (55:45:0.1, by vol) at 5.0 mL/min.

In data set [6] the target is T1, PSAM^4-GlyR (Homo sapiens, UniProt P23415+P36544, L131G/Q139L/Y217F). Kind of data set: Competitive binding assay with [^3H]ASEM on membranes of HEK-293 cells transduced with PSAM^4-GlyR. On the set-up: expressed in transfected cells; host or cells: HEK-293 (membrane fraction). As for the experimental part: HEK-293 cells were transduced with plasmids (5 μg per dish) of encoding PSAM^4-GlyR (in pcDNA3.1) or a control vector (GFP) and harvested 48 h after transduction. Cells were suspended in Tris–HCl buffer (50 mM, pH 7.4) supplemented with a protease inhibitor cocktail (1:100, Sigma-Aldrich; St Louis, MO). HEK-293 cells were disrupted with a Polytron homogenizer (Kinematica; Basel, Switzerland). Homogenates were centrifuged at 48,000g (50 min, 4 °C) and washed twice in the same conditions to isolate the membrane fraction. Protein was quantified by the bicinchoninic acid method (Pierce, ThermoFisher Scientific, MA). […] In all cases, free and membrane-bound radioligand were separated by rapid filtration of 500-μL aliquots in a 96-well plate harvester (Brandel; Gaithersburg, MD) and washed with ice-cold Tris–HCl buffer (2 mL). Microscint-20 scintillation liquid (65 μL per well, PerkinElmer; Boston, MA) was added to the filter plates. Plates were incubated overnight at room temperature and radioactivity counts were determined in a MicroBeta2 plate counter (PerkinElmer) with an efficiency of 41%. One-site competition curves were fitted using Prism 7 (GraphPad Software; La Jolla, CA). Ki values were calculated using the Cheng-Prusoff equation.
T1 sequence (P36544+P23415 fused P36544:L131G/P36544:Q139L/P36544:Y217F): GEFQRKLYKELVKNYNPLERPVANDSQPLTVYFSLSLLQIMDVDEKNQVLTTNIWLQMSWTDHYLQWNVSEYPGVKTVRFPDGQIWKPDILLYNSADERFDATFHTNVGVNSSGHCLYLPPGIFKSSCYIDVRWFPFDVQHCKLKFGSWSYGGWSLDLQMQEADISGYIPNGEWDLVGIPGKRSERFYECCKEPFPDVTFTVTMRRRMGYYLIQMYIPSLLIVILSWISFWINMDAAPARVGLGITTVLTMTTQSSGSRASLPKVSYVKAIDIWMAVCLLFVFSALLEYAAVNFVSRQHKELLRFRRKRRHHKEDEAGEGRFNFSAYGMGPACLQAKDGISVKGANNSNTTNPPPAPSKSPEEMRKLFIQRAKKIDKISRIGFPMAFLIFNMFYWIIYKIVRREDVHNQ

Data set [7] concerns the target T1, PSAM^4-GlyR. Set-up: expressed in transfected cells; method as in PMID 30872534, PMID 24556591, PMID 36279419. Particulars: read-out: PSAM^4-GlyR (Ki); in vitro binding assay, literature; cited from earlier work.
Data set [8] concerns PSAM^4-GlyR. On the set-up: method as in PMID 30872534. Particulars: rhesus monkey, globus pallidus internal region (GPi), PSAM^4-GlyR activated by the ligand; cited from earlier work.
The target of data set [9] is α4β2 nAChR. On the set-up: method as in PMID 30872534, PMID 24556591. Particulars: in vitro binding assay, literature; cited from earlier work.

The Ki is a measure of affinity in units of concentration, obtained from inhibition or displacement. Usually pKa stands for the pH at which an ionisable group is half protonated. As for `Cn1c(=O)cnc2cc3c(cc21)C1CNCC3C1` (centres unmarked) [uPSEM792, 1-Methyl-1,6,7,8,9,10-hexahydro-2H-6,10-methanoazepino[4,5-g]quinoxalin-2-one], the “blocking of [^18F]ASEM binding in brain” value in data set [1] was “able to block [^18F]ASEM binding”. Besides, the neuronal silencing result in data set [2] was “Neuronal silencing has been shown”. Also, the “affinity to α7-nAChRs (in words)” value in data set [3] is “low affinity”. In addition, the Ki is 8000 nM in [3], 2.62 nM in data set [6] and 0.7 nM in data set [7]. The “P-gp substrate in vitro” value in data set [4] is on record as “not a P-gp substrate in vitro; also recorded: not to be a P-gp substrate”. The pKa in data set [5] turned out to be 9.92 ± 0.05.
`c1cnc2cc3c(cc2n1)[C@@H]1CNC[C@H]3C1` [Varenicline, varenicline]: the “effect on neuronal firing rate” value in data set [8] was “reduces neuronal firing rate”.
Regarding `O=S1(=O)c2cc(N3CCN4CCC3CC4)ccc2-c2cccc(F)c21` [ASEM], the Ki is 4000 nM in data set [9] and 0.3 nM in [3].
